Experimental data published in patent publication US11970474B2, “Substituted benzodiazoles and use thereof in therapy” (THOMAS HELLEDAYS STIFTELSE FÖR MEDICINSK FORSKNING, priority 2018, dated 2024).

target: OGG1 (Homo sapiens (Human), UniProt O15527); assay: In vitro OGG1 activity assay; format: biochemical; details: 800 pM OGG1 enzyme, 2 nM human APEX1, 10 nM 8-oxoA:C substrate
Method in brief: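 Fluorescence-release assay on a duplex oligonucleotide carrying an OGG1 substrate base beside a fluorophore, quenched from the complementary strand. Excess APEX1 cleaves the abasic site left by base excision, melting the duplex and unquenching the fluorophore. Compounds in DMSO were dispensed before enzyme and substrate, and fluorescein signal was read.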

Sequence of OGG1 (O15527 whole entry): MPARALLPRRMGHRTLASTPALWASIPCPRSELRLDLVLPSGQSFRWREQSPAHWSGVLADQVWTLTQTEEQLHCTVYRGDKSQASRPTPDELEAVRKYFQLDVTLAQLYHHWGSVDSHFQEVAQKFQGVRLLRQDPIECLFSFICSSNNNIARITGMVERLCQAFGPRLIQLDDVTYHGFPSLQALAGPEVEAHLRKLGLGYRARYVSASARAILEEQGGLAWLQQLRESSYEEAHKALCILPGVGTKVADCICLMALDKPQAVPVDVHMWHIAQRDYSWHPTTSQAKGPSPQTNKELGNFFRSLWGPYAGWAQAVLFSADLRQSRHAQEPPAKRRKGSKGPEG

Structure (SMILES)	IC50
COc1cc(NC(=O)[C@H]2CC[C@@H](n3c(=O)[nH]c4c(NC(C)=O)cccc43)CC2)ccc1C [Example 288, Cis-4-(4-acetamido-2-oxo-2,3-dihydro-1H-1,3-benzodiazol-1-yl)-N-(3-methoxy-4-methylphenyl)cyclohexane-1-carboxamide]	23 nM
COc1cc(NC(=O)[C@H]2CC[C@@H](n3c(=O)[nH]c4ncccc43)CC2)ccc1C [Example 232, Cis-N-(3-methoxy-4-methylphenyl)-4-{2-oxo-1H,2H,3H-imidazo[4,5-b]pyridin-1-yl}cyclohexane-1-carboxamide]	109 nM
COc1ccc(NC(=O)N2CCC(n3c(=O)[nH]c4c(-c5cnc6[nH]ncc6c5)cccc43)CC2)cc1Cl [Example 101, N-(3-chloro-4-methoxyphenyl)-4-(2-oxo-4-{1H-pyrazolo[3,4-b]pyridin-5-yl}-2,3-dihydro-1H-1,3-benzodiazol-1-yl)piperidine-1-carboxamide]	2260 nM
COc1cc(NC(=O)[C@H]2CC[C@@H](n3c(=O)[nH]c4c(C(=O)NCCN5CCNCC5)cccc43)CC2)ccc1C [Example 252, 2-Oxo-N-[2-(piperazin-1-yl)ethyl]-1-[cis-4-[(3-methoxy-4-methylphenyl)carbamoyl]cyclohexyl]-2,3-dihydro-1H-1,3-benzodiazole-4-carboxamide]	3.94 nM
COc1ccc(NC(=O)[C@H]2CC[C@@H](n3c(=O)[nH]c4ccc(F)cc43)CC2)cc1F [Example 218, Cis-4-(6-fluoro-2-oxo-2,3-dihydro-1H-1,3-benzodiazol-1-yl)-N-(3-fluoro-4-methoxyphenyl)cyclohexane-1-carboxamide]	9010 nM
COc1cc(NC(=O)N2CCC(n3c(=O)[nH]c4ccccc43)CC2)ccc1C [Example 210, N-(3-Methoxy-4-methylphenyl)-4-(2-oxo-2,3-dihydro-1H-1,3-benzodiazol-1-yl)piperidine-1-carboxamide]	9490 nM
N#Cc1ccc(NC(=O)[C@H]2CC[C@@H](n3c(=O)[nH]c4c(Br)cccc43)CC2)cc1Cl [Example 125, (Cis)-4-(4-bromo-2-oxo-2,3-dihydro-1H-1,3-benzodiazol-1-yl)-N-(3-chloro-4-cyanophenyl)cyclohexane-1-carboxamide]	3620 nM
O=c1[nH]c2c(Br)cccc2n1[C@H]1CC[C@@H](C(=O)Nc2cccc(CO)c2)CC1 [Example 231, Cis-4-(4-bromo-2-oxo-2,3-dihydro-1H-1,3-benzodiazol-1-yl)-N-[3-(hydroxymethyl)phenyl]cyclohexane-1-carboxamide]	8050 nM
COc1cc(NC(=O)[C@H]2CC[C@@H](n3c(=O)[nH]c4c(N5CCOCC5)cccc43)CC2)ccc1C [Example 241, Cis-N-(3-methoxy-4-methylphenyl)-4-[4-(morpholin-4-yl)-2-oxo-2,3-dihydro-1H-1,3-benzodiazol-1-yl]cyclohexane-1-carboxamide]	960 nM
COc1ccc(NC(=O)[C@H]2CC[C@@H](n3c(=O)[nH]c4c(Br)cccc43)CC2)c(F)c1 [Example 156, (Cis)-4-(4-bromo-2-oxo-2,3-dihydro-1H-1,3-benzodiazol-1-yl)-N-(2-fluoro-4-methoxyphenyl)cyclohexane-1-carboxamide]	173 nM
COc1cc(NC(=O)[C@H]2CC[C@@H](n3c(=O)[nH]c4c(N5CCC(N)CC5)cccc43)CC2)ccc1C [Example 303, Cis-4-[4-(4-aminopiperidin-1-yl)-2-oxo-2,3-dihydro-1H-1,3-benzodiazol-1-yl]-N-(3-methoxy-4-methylphenyl)cyclohexane-1-carboxamide]	10.6 nM
COc1cc(NC(=O)[C@H]2CC[C@@H](n3c(=O)[nH]c4c(Br)cccc43)CC2)cc(OC)c1OC [Example 193, Cis-4-(4-bromo-2-oxo-2,3-dihydro-1H-1,3-benzodiazol-1-yl)-N-(3,4,5-trimethoxyphenyl)cyclohexane-1-carboxamide]	1380 nM
COc1ccc(NC(=O)N2CCC(n3c(=O)[nH]c4cc(C#N)ccc43)CC2)cc1Cl [Example 178, N-(3-Chloro-4-methoxyphenyl)-4-(5-cyano-2-oxo-2,3-dihydro-1H-1,3-benzodiazol-1-yl)piperidine-1-carboxamide]	6920 nM
COc1cc(NC(=O)[C@H]2CC[C@@H](n3c(=O)[nH]c4c(OCCC(C)C)cccc43)CC2)ccc1C [Example 325, Cis-N-(3-methoxy-4-methylphenyl)-4-[4-(3-methylbutoxy)-2-oxo-2,3-dihydro-1H-1,3-benzodiazol-1-yl]cyclohexane-1-carboxamide]	314 nM
NC(=O)c1ccc(NC(=O)[C@H]2CC[C@@H](n3c(=O)[nH]c4c(Br)cccc43)CC2)cc1 [Example 224, 4-[cis-4-(4-bromo-2-oxo-2,3-dihydro-1H-1,3-benzodiazol-1-yl)cyclohexaneamido]benzamide]	3660 nM
COc1ccc(-c2cccc3c2[nH]c(=O)n3C2CCN(C(=O)Nc3ccc(Cl)c(OC)c3)CC2)cn1 [Example 105, N-(4-chloro-3-methoxyphenyl)-4-[4-(6-methoxypyridin-3-yl)-2-oxo-2,3-dihydro-1H-1,3-benzodiazol-1-yl]piperidine-1-carboxamide]	2940 nM
COc1cc(NC(=O)[C@H]2CC[C@@H](n3c(=O)[nH]c4c(NCC(F)F)cccc43)CC2)ccc1C [Example 324, Cis-4-{4-[(2,2-difluoroethyl)amino]-2-oxo-2,3-dihydro-1H-1,3-benzodiazol-1-yl}-N-(3-methoxy-4-methylphenyl)cyclohexane-1-carboxamide]	96.9 nM
COc1ccc(NC(=O)[C@H]2CC[C@@H](n3c(=O)[nH]c4ccc(F)cc43)CC2)cc1 [Example 216, Cis-4-(6-fluoro-2-oxo-2,3-dihydro-1H-1,3-benzodiazol-1-yl)-N-(4-methoxyphenyl)cyclohexane-1-carboxamide]	8130 nM
CCCNc1cccc2c1[nH]c(=O)n2C1CCN(C(=O)Nc2ccc(OC)c(Cl)c2)CC1 [Example 175, N-(3-Chloro-4-methoxyphenyl)-4-[2-oxo-4-(propylamino)-2,3-dihydro-1H-1,3-benzodiazol-1-yl]piperidine-1-carboxamide]	2620 nM
COc1ccc(NC(=O)N2CCC(n3c(=O)[nH]c4c(Br)cccc43)C(O)C2)cc1Cl (stereo not drawn) [Example 177, 4-(4-Bromo-2-oxo-2,3-dihydro-1H-1,3-benzodiazol-1-yl)-N-(3-chloro-4-methoxyphenyl)-3-hydroxypiperidine-1-carboxamide]	5020 nM
COc1cc(NC(=O)N2CCC(n3c(=O)[nH]c4c(-c5cccnc5)cccc43)CC2)ccc1C [Example 95, N-(3-methoxy-4-methylphenyl)-4-[2-oxo-4-(pyridin-3-yl)-2,3-dihydro-1H-1,3-benzodiazol-1-yl]piperidine-1-carboxamide]	1810 nM
COc1cc(NC(=O)N2CCC(n3c(=O)[nH]c4c(-c5cncc(N)c5)cccc43)CC2)ccc1Cl [Example 104, 4-[4-(5-Aminopyridin-3-yl)-2-oxo-2,3-dihydro-1H-1,3-benzodiazol-1-yl]-N-(4-chloro-3-methoxyphenyl)piperidine-1-carboxamide]	2280 nM
Cc1cc(NC(=O)[C@H]2CC[C@@H](n3c(=O)[nH]c4c(Br)cccc43)CC2)no1 [Example 169, (Cis)-4-(4-bromo-2-oxo-2,3-dihydro-1H-1,3-benzodiazol-1-yl)-N-(5-methyl-1,2-oxazol-3-yl)cyclohexane-1-carboxamide]	9090 nM
CN(C)c1ccc(NC(=O)[C@H]2CC[C@@H](n3c(=O)[nH]c4c(Br)cccc43)CC2)cc1 [Example 200, Cis-4-(4-bromo-2-oxo-2,3-dihydro-1H-1,3-benzodiazol-1-yl)-N-[4-(dimethylamino)phenyl]cyclohexane-1-carboxamide]	631 nM
